From paper PMC8286840, “Identifying SARS-CoV-2 antiviral compounds by screening for small molecule inhibitors of Nsp3 papain-like protease” (Biochemical Journal, 2021)
Counter-ions that a name gives are not always drawn. Like-named read-outs stand apart in the source and are kept apart here.

What was measured:
[1] = biological target: T1, SARS-CoV-2 PLpro (nsp3 1564–1878) (Severe acute respiratory syndrome coronavirus 2, UniProt P0DTD1); assay: biochemical; design: FRET-quenched peptide (Pro3) cleavage by PLpro, 10 min pre-incubation, slope over 20 min, normalised to no-compound control; conditions: low concentration screen, read-out: % of control remaining
[2] = biological target: T1, SARS-CoV-2 PLpro (nsp3 1564–1878); assay: biochemical; design: FRET-quenched peptide (Pro3) cleavage by PLpro, 10 min pre-incubation, slope over 20 min, normalised to no-compound control; conditions: high concentration screen, read-out: % of control remaining

With `CC(C)(C)n1nc(-c2ccc(Cl)cc2)c2c(N)ncnc21` [PP 2 - 3-(4-chlorophenyl) 1-(1,1-dimethylethyl)-1H-pyrazolo[3,4-d]pyrimidin-4-amine] the remaining activity at 1.25 µM ([1]; Well no.=2428) was 98.1% and the remaining activity at 3.75 µM ([2]; Well no.=2428) was 101%.

With `O=C1C(C2=C3c4ccccc4NC3/C(=C\c3ccc(O)cc3)C2=O)=C2C(=Nc3ccccc32)/C1=C\c1ccc(O)cc1` (stereo not drawn) [Scytonemin, Lyngbya sp.] the remaining activity at 1.25 µM ([1]; Well no.=2669) was 96.6% and the remaining activity at 3.75 µM ([2]; Well no.=2669) was 101%.

Compound `CCCCC/C=C\C=C\C(O)CCCCCCCC(=O)O` (racemic) has a remaining activity at 1.25 µM ([1]; Well no.=4378) of 103% and a remaining activity at 3.75 µM ([2]; Well no.=4378) of 103%.

Work on `CC(C)Cn1cnc2c(N)nc3ccccc3c21` [Imiquimod] yielded a remaining activity at 1.25 µM ([1]; Well no.=2222) of 94%, a remaining activity at 1.25 µM ([1]; Well no.=8069) of 109% and a remaining activity at 3.75 µM ([2]; Well no.=2222) of 94.3%. For the same compound, the remaining activity at 3.75 µM ([2]; Well no.=8069) was 108%.

For `CC(ONC(=O)c1cc(C(F)(F)F)cc(C(F)(F)F)c1)C(=O)Nc1ccc(Cl)cc1` (stereo not drawn) [N-[2-(4-chloroanilino)-1-methyl-2-oxoethoxy]-3,5-bis(trifluoromethyl)benzamide], the remaining activity at 1.25 µM ([1]; Well no.=5698) was 101% and the remaining activity at 3.75 µM ([2]; Well no.=5698) was 103%.

`CC(Nc1nc(N2CCCC2)nc2ccccc12)c1ccccc1` (stereo not drawn) [Importazole] gave a remaining activity at 1.25 µM ([1]; Well no.=5622) of 95.6% and a remaining activity at 3.75 µM ([2]; Well no.=5622) of 96.8%.

Compound `c1ccc(C(OC2CCN(CCCc3nn[nH]n3)CC2)c2ccccc2)cc1` [4-(benzhydryloxy)-1-[3-(1H-tetraazol-5-yl)propyl]piperidine] has a remaining activity at 1.25 µM ([1]; Well no.=6014) of 95.5% and a remaining activity at 3.75 µM ([2]; Well no.=6014) of 93.3%.

`CC1=C(/C=C/C(C)=C\C=C\C(C)=C\C(=O)O)C(C)(C)CCC1` [9-cis Retinoic acid] gave a remaining activity at 1.25 µM ([1]; Well no.=3136) of 98.3%, a remaining activity at 1.25 µM ([1]; Well no.=4428) of 103% and a remaining activity at 3.75 µM ([2]; Well no.=3136) of 95.8%. For the same compound, the remaining activity at 3.75 µM ([2]; Well no.=4428) was 102%.

For `CCCc1nc2c(C)cc(-c3nc4ccccc4n3C)cc2n1Cc1ccc(-c2ccccc2C(=O)O)cc1` [Telmisartan], the remaining activity at 1.25 µM ([1]; Well no.=2297) was 95.4%, the remaining activity at 1.25 µM ([1]; Well no.=6283) was 105% and the remaining activity at 3.75 µM ([2]; Well no.=2297) was 94.3%. The remaining activity at 3.75 µM ([2]; Well no.=6283) was 108%.

Compound `N/C(=N\N=C\c1ccc(-c2cccc([N+](=O)[O-])c2)o1)N[N+](=O)[O-]` [ERK Inhibitor III] has a remaining activity at 1.25 µM ([1]; Well no.=2422) of 101% and a remaining activity at 3.75 µM ([2]; Well no.=2422) of 104%.

`CC1(C)CCC(c2ccc(Cl)cc2)=C(CN2CCN(c3ccc(C(=O)NS(=O)(=O)c4ccc(N[C@H](CCN5CCOCC5)CSc5ccccc5)c(S(=O)(=O)C(F)(F)F)c4)cc3)CC2)C1` [Navitoclax] showed a remaining activity at 1.25 µM ([1]; Well no.=6580) of 93.1%, a remaining activity at 1.25 µM ([1]; Well no.=8224) of 103% and a remaining activity at 3.75 µM ([2]; Well no.=6580) of 92.2%. For the same compound, the remaining activity at 3.75 µM ([2]; Well no.=8224) was 94.8%.

With `Nc1nc2[nH]cc(CCc3ccc(C(=O)N[C@@H](CCC(=O)O)C(=O)O)cc3)c2c(=O)[nH]1` [Pemetrexed] the remaining activity at 1.25 µM ([1]; Well no.=8316) was 103% and the remaining activity at 3.75 µM ([2]; Well no.=8316) was 101%.

Work on `NCCCCN(Cc1nc2ccccc2[nH]1)[C@H]1CCCc2cccnc21` [AMD-070 (hydrochloride)] yielded a remaining activity at 1.25 µM ([1]; Well no.=7093) of 106% and a remaining activity at 3.75 µM ([2]; Well no.=7093) of 100%.

Work on `O=C(O)c1cccnc1` [Niacin] yielded a remaining activity at 1.25 µM ([1]; Well no.=6401) of 102% and a remaining activity at 3.75 µM ([2]; Well no.=6401) of 96.9%.

With `COc1cc(/C=C/C(=O)O)ccc1O` [Ferulic acid (sodium)] the remaining activity at 1.25 µM ([1]; Well no.=8535) was 107% and the remaining activity at 3.75 µM ([2]; Well no.=8535) was 106%.

`O=C(O)Cc1c[nH]c2ccccc12` [3-Indoleacetic acid] gave a remaining activity at 1.25 µM ([1]; Well no.=6255) of 108% and a remaining activity at 3.75 µM ([2]; Well no.=6255) of 113%.

For `O=C(Oc1ccc([N+](=O)[O-])cc1)N1CCN(Cc2cccc(Oc3ccccc3)c2)CC1` [JZL195], the remaining activity at 1.25 µM ([1]; Well no.=5512) was 107% and the remaining activity at 3.75 µM ([2]; Well no.=5512) was 108%.

Compound `CN(C)CC(=O)O` [N-Methylsarcosine] has a remaining activity at 1.25 µM ([1]; Well no.=6873) of 104% and a remaining activity at 3.75 µM ([2]; Well no.=6873) of 102%.

`O=C(/C=C/c1ccc(O)c(O)c1)c1ccc(O)cc1O` [Butein] showed a remaining activity at 1.25 µM ([1]; Well no.=3272) of 96.3% and a remaining activity at 3.75 µM ([2]; Well no.=3272) of 97.5%.

`N[C@@H](Cn1ccc(=O)[nH]c1=O)C(=O)O` [S(-)-Willardiine] was tested, and the remaining activity at 1.25 µM ([1]; Well no.=1244) was 100% and the remaining activity at 3.75 µM ([2]; Well no.=1244) was 99.9%.
